Measured values: ChEMBL document CHEMBL4000195, “Design and synthesis of novel 7-aminosubstituted pyrido[2,3-b]pyrazines exhibiting anti-breast cancer activity” (Eur J Med Chem, 2017)

Experiments:
Type in all cases: functional
MCF7 [1] = assay: Cytotoxicity against human MCF7 cells at 5 uM by MTT assay
MCF7 [2] = assay: Cytotoxicity against human MCF7 cells at 10 uM by MTT assay
T47D [3] = assay: Cytotoxicity against human T47D cells at 5 uM by MTT assay
T47D [4] = assay: Cytotoxicity against human T47D cells at 10 uM by MTT assay
MDA-MB-231 [5] = assay: Cytotoxicity against human MDA-MB-231 cells at 5 uM by MTT assay
MDA-MB-231 [6] = assay: Cytotoxicity against human MDA-MB-231 cells at 10 uM by MTT assay
HCC1954 [7] = assay: Cytotoxicity against human HCC1954 cells at 5 uM by MTT assay
HCC1954 [8] = assay: Cytotoxicity against human HCC1954 cells at 10 uM by MTT assay

Measured: Activity

Cc1ccc(C(=O)Nc2cc3ncc(Sc4ccccc4)nc3nc2C)cc1
<50%: all assays above

Cc1nc2nc(Sc3ccccc3)cnc2cc1NC(=O)Nc1cccc(C(F)(F)F)c1
<50%: all assays above

Cc1nc2nccnc2cc1NC(=O)CN1CCN(C)CC1
<50%: all assays above

COc1cc(C(=O)Nc2cc3nccnc3nc2C)cc(OC)c1OC
<50%: all assays above

Cc1nc2nccnc2cc1NC(=O)c1ccc([N+](=O)[O-])cc1
<50%: all assays above

Cc1nc2nc(Sc3ccccc3)cnc2cc1NC(=O)c1ccccc1C(F)(F)F
<50%: all assays above

Cc1nc2nccnc2cc1NC(=O)CN(C)C
<50%: all assays above

Cc1nc2nc(Sc3ccccc3)cnc2cc1NC(=O)Nc1ccc(F)c(Cl)c1
<50%: all assays above

Cc1nc2nc(Sc3ccccc3)cnc2cc1NC(=O)Nc1ccc(F)c([N+](=O)[O-])c1
<50%: all assays above

COc1cc(C(=O)Nc2cc3ncc(Sc4ccccc4)nc3nc2C)cc(OC)c1OC
<50%: all assays above

Cc1nc2nc(Sc3ccccc3)cnc2cc1NC(=O)c1ccc([N+](=O)[O-])cc1
<50%: all assays above

Cc1nc2nc(Sc3ccccc3)cnc2cc1N
<50%: all assays above

Cc1nc2nc(Sc3ccccc3)cnc2cc1NC(=O)CN1CCN(C)CC1
<50%: all assays above

Cc1nc2nc(Sc3ccccc3)cnc2cc1NC(=O)CN(C)C
<50%: all assays above

CSc1ccc(NC(=O)Nc2cc3ncc(Sc4ccccc4)nc3nc2C)cc1
<50%: all assays above

Cc1nc2nccnc2cc1NC(=O)c1cccc(C(F)(F)F)c1
<50%: all assays above

Cc1ccc(C(=O)Nc2cc3nccnc3nc2C)cc1
<50%: all assays above

Cc1nc2nccnc2cc1NC(=O)c1ccccc1
<50%: all assays above

Cc1nc2nc(Sc3ccccc3)cnc2cc1NC(=O)c1cccc(C(F)(F)F)c1
<50%: all assays above
